In ChEMBL document CHEMBL3881530, “Compounds and methods for inhibiting NHE-mediated antiport in the treatment of disorders associated with fluid retention or salt overload and gastrointestinal tract disorders” (2013):

test system: Rattus norvegicus; test: Effect on fecal water content in Sprague-Dawley rat at 3 mg/kg administered via oral gavage measured after 16 hrs relative to control; assay type: functional

Structure (SMILES)	Activity [%]
CN1Cc2c(Cl)cc(Cl)cc2[C@H](c2ccc(S(=O)(=O)NCCOCCOCCOCCNC(=O)NCCOCCOCCOCCNS(=O)(=O)c3ccc([C@@H]4CN(C)Cc5c(Cl)cc(Cl)cc54)cc3)cc2)C1 (mixture of isomers)	120
CN1Cc2c(Cl)cc(Cl)cc2C(c2ccc(S(=O)(=O)NCCOCCOCCNC(=O)COCC(=O)NCCOCCOCCNS(=O)(=O)c3ccc(C4CN(C)Cc5c(Cl)cc(Cl)cc54)cc3)cc2)C1 (centres undefined)	118
CN1Cc2c(Cl)cc(Cl)cc2C(c2cccc(S(=O)(=O)NCCOCCOCCNC(=O)c3ccc(C(=O)NCCOCCOCCNS(=O)(=O)c4cccc(C5CN(C)Cc6c(Cl)cc(Cl)cc65)c4)cc3)c2)C1 (centres undefined)	117
CN1Cc2c(Cl)cc(Cl)cc2C(c2ccc(S(=O)(=O)NCCOCCOCCNC(=O)Nc3ccc(NC(=O)NCCOCCOCCNS(=O)(=O)c4ccc(C5CN(C)Cc6c(Cl)cc(Cl)cc65)cc4)cc3)cc2)C1 (centres undefined)	114
CN1Cc2c(Cl)cc(Cl)cc2C(c2cccc(S(=O)(=O)NCCOCCOCCNC(=O)Nc3ccc(NC(=O)NCCOCCOCCNS(=O)(=O)c4cccc(C5CN(C)Cc6c(Cl)cc(Cl)cc65)c4)cc3)c2)C1 (centres undefined)	120
CN1Cc2c(Cl)cc(Cl)cc2C(c2cccc(S(=O)(=O)NCCOCCOCCNC(=O)NCCCCNC(=O)NCCOCCOCCNS(=O)(=O)c3cccc(C4CN(C)Cc5c(Cl)cc(Cl)cc54)c3)c2)C1 (centres undefined)	128
CN1Cc2c(Cl)cc(Cl)cc2[C@H](c2ccc(S(=O)(=O)NCCOCCOCCNC(=O)CCC(=O)NCCOCCOCCNS(=O)(=O)c3ccc([C@@H]4CN(C)Cc5c(Cl)cc(Cl)cc54)cc3)cc2)C1.Cl.Cl (single isomer, unassigned)	124
CN1Cc2c(Cl)cc(Cl)cc2C(c2ccc(S(=O)(=O)NCCOCCOCCNC(=O)CCC(=O)NCCOCCOCCNS(=O)(=O)c3ccc(C4CN(C)Cc5c(Cl)cc(Cl)cc54)cc3)cc2)C1 (centres undefined)	121
CN1Cc2c(Cl)cc(Cl)cc2C(c2cccc(S(=O)(=O)NCCOCCOCCOCCNC(=O)C(O)C(O)C(=O)NCCOCCOCCOCCNS(=O)(=O)c3cccc(C4CN(C)Cc5c(Cl)cc(Cl)cc54)c3)c2)C1 (single isomer, unassigned)	125
